The text below walks through data of US20230134003A1, “METHOD AND APPARATUS FOR CLINICAL TESTING” (Lightcast Discovery Ltd, priority 2019, published 2023).

The subject of the assay is sample strain of E. coli bacteria. The assay is described as follows: Panel merge and MIC determination in microdroplets on oEWOD chip. The class given is cell-based. Conditions: gentamicin in tryptic soy broth (TSB) droplets merged with droplets of 1-3 bacteria; growth pattern observed within three hours of reducing the concentration. As for the experimental part:
Droplets were paired together so that the post-merge droplets were all roughly of uniform size. Every third droplet was labelled as a control and remained unpaired. The smaller droplets in this example contained the antibiotic gentamicin at a concentration of 500 ng/mL in tryptic soy broth (TSB), whilst each of the larger droplets contained 1-3 bacteria in TSB. […] Within three hours of reducing the concentration, a robust growth behaviour pattern was observed, allowing for a determination of the MIC. In this particular case, the MIC was determined to lie at approximately 300 pg/mL.

On to gentamicin, for which the MIC entry was “approximately 300 pg/mL”.
